{"source": "paper PMC8210154", "about": "“Tumor-selective, antigen-independent delivery of a pH sensitive peptide-topoisomerase inhibitor conjugate suppresses tumor growth without systemic toxicity” (NAR Cancer, 2021)", "key": {"[1]": {"tested_on": "γH2AX in HCT116 flank tumors", "assay": "γH2AX immunofluorescence assay in HCT116 flank tumors", "assay_type": "in vivo, mice", "conditions": "1.15 mg/kg exatecan, P < 0.001", "protocol": "Tumors were collected as detailed above, and FFPE tumor slides were created for IF staining. Antigen retrieval was performed using a heat-induced epitope retrieval (HIER) method, with TRIS-EDTA pH 9.0. Staining with primary antibody (mouse anti-human γH2AX; 1:500, Invitrogen) followed by secondary antibody (Goat anti-mouse Ax594; 1:1000, Invitrogen) was then performed. Images were obtained with a Keyence imager. Data analysis was performed in ImageJ and CellProfiler ([16]). Raincloud plots and heatmap were generated in R version 4.0.3 ([17]). Statistical analysis for γH2AX expression was performed using Kruskal–Wallis test, followed by Dunn's multiple comparison test (GraphPad Prism 9.1.0)."}, "[2]": {"target": "T1, TOP1 protein levels in rat bone marrow cells (Rattus norvegicus, UniProt Q9WUL0)", "T1 construct": "from tissue; host or cells: rat bone marrow cells, dosed ex vivo", "T1 sequence (Q9WUL0 1-767)": "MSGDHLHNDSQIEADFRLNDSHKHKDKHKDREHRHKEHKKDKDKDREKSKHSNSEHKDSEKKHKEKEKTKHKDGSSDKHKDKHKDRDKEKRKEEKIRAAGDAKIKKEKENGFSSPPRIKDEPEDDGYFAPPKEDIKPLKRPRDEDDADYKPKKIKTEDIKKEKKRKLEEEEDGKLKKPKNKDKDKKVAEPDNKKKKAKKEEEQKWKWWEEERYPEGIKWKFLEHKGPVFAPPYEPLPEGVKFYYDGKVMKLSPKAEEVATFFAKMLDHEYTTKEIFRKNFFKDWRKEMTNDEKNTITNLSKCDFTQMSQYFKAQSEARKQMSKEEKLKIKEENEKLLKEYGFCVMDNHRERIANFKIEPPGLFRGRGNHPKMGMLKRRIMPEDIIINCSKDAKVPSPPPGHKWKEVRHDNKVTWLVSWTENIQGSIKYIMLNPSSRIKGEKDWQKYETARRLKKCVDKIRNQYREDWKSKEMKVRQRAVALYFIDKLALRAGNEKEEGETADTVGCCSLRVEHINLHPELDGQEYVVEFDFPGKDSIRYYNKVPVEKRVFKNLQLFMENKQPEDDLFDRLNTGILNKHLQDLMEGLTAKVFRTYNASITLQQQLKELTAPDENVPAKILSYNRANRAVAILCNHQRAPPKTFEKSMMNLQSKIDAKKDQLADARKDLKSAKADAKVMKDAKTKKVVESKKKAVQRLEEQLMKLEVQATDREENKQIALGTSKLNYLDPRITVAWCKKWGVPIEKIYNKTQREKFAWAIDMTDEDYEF", "assay": "TOP1 FACS assay, rat bone marrow cells dosed ex vivo", "assay_type": "cell-based", "conditions": "rat bone marrow cells in vitro, 24 h; read-out: IC50 for TOP1 protein levels", "protocol": "Naïve Sprague-Dawley rat bone marrow cells were plated at 1 × 10^6/ml in 2 mL of RPMI^+ in six-well plates. Cells were allowed to incubate for 3 h at 37°C before compound addition. […] Cells were harvested, washed with PBS and counted.\n(§1) Tumor and bone marrow cells collected 24 h after dosing were permeabilized and fixed for 20 min on ice in the dark (Cytofix/Cytoperm Becton Dickinson; #554714), then washed 2× with Perm Wash. Cells were stained with rabbit anti-topoisomerase 1 antibody (Abcam; #109374) at 1 μg/ml on ice in the dark for 30 min and washed 2×, followed by staining with secondary antibody goat anti-rabbit IgG AF647 (Jackson ImmunoResearch; #111-605-144 diluted 1:1000) on ice in dark for 30 min. After a final 2× wash, the reduction of topoisomerase I (TOP1) protein levels was evaluated by collecting 10,000 (tumor) or 30,000 (BM) cells and determining the number of TOP1 positive stained cells on a BD Accuri™ flow cytometer."}, "[3]": {"target": "T2, TOP1 protein levels in HCT116 cells (Homo sapiens, UniProt P11387)", "T2 construct": "endogenous in cells; host or cells: HCT116 cells", "T2 sequence (P11387 1-765)": "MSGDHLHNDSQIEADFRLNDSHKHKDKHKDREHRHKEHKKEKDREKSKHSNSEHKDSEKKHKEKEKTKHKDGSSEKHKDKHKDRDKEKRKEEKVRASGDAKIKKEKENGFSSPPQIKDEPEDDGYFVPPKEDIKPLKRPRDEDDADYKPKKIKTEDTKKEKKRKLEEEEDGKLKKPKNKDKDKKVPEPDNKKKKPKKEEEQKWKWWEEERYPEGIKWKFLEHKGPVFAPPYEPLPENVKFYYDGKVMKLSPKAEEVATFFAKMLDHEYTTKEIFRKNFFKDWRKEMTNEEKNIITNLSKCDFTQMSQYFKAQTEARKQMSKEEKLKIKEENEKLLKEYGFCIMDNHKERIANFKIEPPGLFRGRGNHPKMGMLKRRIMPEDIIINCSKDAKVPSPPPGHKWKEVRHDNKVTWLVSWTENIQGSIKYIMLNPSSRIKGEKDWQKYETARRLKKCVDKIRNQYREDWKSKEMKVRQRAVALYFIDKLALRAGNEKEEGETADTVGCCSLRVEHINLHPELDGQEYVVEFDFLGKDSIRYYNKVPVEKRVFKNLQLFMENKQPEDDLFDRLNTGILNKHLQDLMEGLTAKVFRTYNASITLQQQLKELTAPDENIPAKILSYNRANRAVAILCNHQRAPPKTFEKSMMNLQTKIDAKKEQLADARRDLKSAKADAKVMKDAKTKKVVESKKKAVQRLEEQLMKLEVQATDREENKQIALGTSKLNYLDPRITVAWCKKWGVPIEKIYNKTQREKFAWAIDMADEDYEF", "assay": "TOP1 FACS assay, HCT116 cells dosed in vitro", "assay_type": "cell-based", "conditions": "24 h, read-out: IC50 for TOP1 protein levels", "protocol": "HCT116 cells were plated at 2.5 × 10^5/mL in 2 mL DMEM^+ in six-well plates. Cells were allowed to attach overnight in 37°C incubator before compound addition. […] Cells were scraped, washed with PBS and counted.\nas §1"}, "[4]": {"tested_on": "MKN45 xenografts", "assay": "MKN45 xenograft in nude mice", "conditions": "MKN45 flank model, 2.3 mg/kg (equimolar to 20 mg/kg CBX-12)"}, "[5]": {"target": "T3, TOP1 protein levels in HCT116 tumor tissue (Homo sapiens, UniProt P11387)", "T3 construct": "Xenograft tumors were excised, weighed, and minced then were digested to single cells; from tissue; host or cells: HCT116 xenograft tumors from athymic nude mice", "T3 sequence (P11387 1-765)": "T2 sequence (P11387 1-765)", "assay": "TOP1 FACS assay, HCT116 xenografted tumor of dosed mice", "assay_type": "in vivo", "conditions": "2.5 μmol/kg for 4 days, 24 h post last dose", "protocol": "The vials capped and vortexed for 2 min.\nXenograft tumors were excised, weighed, and minced then were digested to single cells with an enzyme mix (Miltenyi; #130-095-929) for 40 min shaking at 37°C. Enzymes were inactivated by adding equal volume of DMEM^+. Digested cells were sequentially filtered through 70 μm then 40 μm filters and centrifuged at 700 rpm for 7 min at 4°C.\nas §1"}, "[6]": {"assay": "Toxicity in mice (bone marrow cell counts, body weight, stomachs)", "quoted_text": "Following tumor collection, mice were euthanized by cervical dislocation under anesthesia in accordance with the American Veterinary Medical Association (AVMA) Guidelines for the Euthanasia of Animals. Femurs were removed, and bone marrow was extruded into 50 mL conical tubes by flushing the bones with a 23-gauge needle fitted on a 5cc syringe containing PBS + 2% fetal bovine serum (FBS). Bone marrow was homogenized by gentle pipetting and filtered through 100 μm nylon mesh filters and cells were pelleted by centrifugation at 1200 rpm for 5 min at 4°C. Red blood cells were lysed with 3 mL of lysis buffer for 2 min at room temperature. PBS was added to a volume of 25 mL and cells were re-pelleted by centrifugation as described above. Cell pellets were suspended in 5 mL of PBS and cell count was assessed by trypan blue exclusion on a TC-20 cell counter (BioRad)."}, "[7]": {"tested_on": "MDA-MB-231 cells", "assay": "Short-term viability assay, MDA-MB-231 cells", "assay_type": "cell-based", "conditions": "Homo sapiens", "protocol": "(§2) Microplate-based short-term viability and synergy assays were performed as described previously ([18])."}, "[8]": {"assay": "Toxicity in rats (body weight, duodenum H&E histology)", "assay_type": "in vivo", "from_the_text": "Duodenal tissue samples were fixed in 10% neutral buffered formalin, processed and embedded in paraffin. Tissue cross sections (5 μm) were mounted on positively charged microscope slides and stained with hematoxylin and eosin (H&E) (PolyScientific R&D, New York). Images were taken of tissue sections by standard light microscopy using an EVOS FL Cell Imaging System (Life Technologies) for histomorphological evaluation of intestinal inflammation."}, "[9]": {"target": "T4, TOP1 protein levels in bone marrow (Mus musculus, UniProt Q04750)", "T4 construct": "Mouse bone marrow cells were isolated as described above; from tissue; host or cells: bone marrow of athymic nude mice bearing HCT116 xenografts", "T4 sequence (Q04750 1-767)": "T1 sequence (Q9WUL0 1-767) with D77E, K90R, P141L, L167S, A197P, G239S, K665R", "assay": "TOP1 FACS assay, bone marrow of dosed mice", "assay_type": "in vivo", "conditions": "2.5 μmol/kg for 4 days, 24 h post last dose", "protocol": "Mouse bone marrow cells were isolated as described above.\nas §1"}, "[10]": {"tested_on": "MDA-MB-231 cells", "assay": "Synergy assay (Bliss) exatecan with talazoparib, MDA-MB-231 cells", "assay_type": "cell-based, human", "conditions": "Bliss synergy analysis"}, "[11]": {"tested_on": "HCT116 cells", "assay": "In vitro cell killing, HCT116 cells", "assay_type": "cell-based", "conditions": "Homo sapiens, HCT-116, data not shown", "protocol": "as §2"}}, "note": "Numbering of substitutions follows the chain as printed. Entries after “also recorded” stand apart in the source; their conditions may differ."}
{"smiles": "CC[C@@]1(O)C(=O)OCc2c1cc1n(c2=O)Cc2c-1nc1cc(F)c(C)c3c1c2[C@@H](N)CC3", "note": "[exatecan]", "values": [{"measurement": "γH2AX expression after second cycle compared to first cycle", "setting": "[1]", "result": "significant higher γH2AX expression; also recorded: significantly higher γH2AX expression"}, {"measurement": "DC50", "setting": "[2]", "result": 27.3, "unit": "nM"}, {"measurement": "DC50", "setting": "[3]", "result": 24.8, "unit": "nM"}, {"measurement": "tolerability", "setting": "[4]", "result": "not tolerated and was lethal in all animals"}, {"measurement": "TOP1 protein levels in HCT116 flank tumor tissue", "setting": "[5]", "result": "decreased"}, {"measurement": "body weight", "setting": "[6]; mice (Figure 3B)", "result": "significant and unrecoverable body weight reductions"}, {"measurement": "bone marrow cell counts", "setting": "[6]; mice, equimolar doses", "result": "drastic bone marrow suppression"}, {"measurement": "IC50", "setting": "[7]", "result": 0.21, "unit": "nM"}, {"measurement": "GI toxicity microscopically (H&E of duodenum)", "setting": "[8]; rat, in vivo", "result": "significant GI toxicity"}, {"measurement": "body weight", "setting": "[8]; rats (Figure 3C)", "result": "significant and unrecoverable body weight reductions"}, {"measurement": "TOP1 protein levels in bone marrow", "setting": "[9]", "result": "decreased"}, {"measurement": "interaction when combined with talazoparib", "setting": "[10]", "result": "robust synergy"}, {"measurement": "IC50", "setting": "[11]", "result": 0.2, "unit": "nM"}]}
